Laboratory results published in patent US20120028976A1, “PHARMACOKINETICALLY-BASED DOSING REGIMENTS OF A THROMBIN RECEPTOR ANTAGONIST” (priority 2008, published 2012).
Like-named read-outs stand apart in the source and are kept apart here.

Legend:
[1] = clinical; conditions: human, in vivo
Excerpt: (§1) Phase I clinical studies were designed to evaluate the pharmacokinetics of COMPOUND 1 in healthy subjects after rising single and multiple doses. The study included a randomized, evaluator-blind, placebo-controlled, rising single dose (“RSD”) study and a rising multiple dose (“RSM”) study of orally administered COMPOUND 1 in healthy subjects.
(§2) In the single-dose study, 50 healthy males were enrolled into 6 sequential cohorts and randomized to receive in ascending dose manner placebo (n=2-3/group) or oral COMPOUND 1 (0.25, 1, 5, 10, 20 and 40 mg; n=5-6/group). In the multiple-dose study, 36 healthy subjects were enrolled into 3 sequential cohorts and randomized to receive in ascending-dose manner placebo (n=4/group) or oral COMPOUND 1(1, 3, and 5 mg OD in the morning for 28 days, n=8/group). A fourth cohort in the same study (n=12) was randomized to receive a single loading dose of COMPOUND 1, 10 mg (n=6) or 20 mg (n=6) on Day 1, followed by maintenance doses of 1 mg daily for 6 days. Measured and derived pharmacokinetic parameters were used to assess the pharmacokinetic profile. The doses were administered using appropriate combinations of the capsule formulations disclosed in Table 1.
Variability was low to moderate.
The RMD study also allowed evaluation of COMPOUND 1 accumulation. Mean accumulation index (R) values ranged from 4.72 to 6.37. The effective half-lives determined from R values ranged from 59.8 to 141 hrs.

[2] = Rising single dose (RSD) study: pharmacokinetics of orally administered COMPOUND 1 in healthy subjects; assay type: in vivo, human; conditions: for Cmax / AUC(0-t) / Tmax: po; for time for which plasma concentrations were quantifiable: LLOQ 0.1 ng/ml
Excerpt: as §1, §2
Several observations were made from the data collected in the RSD Study. […] Tmax ranged from 0.5 to 2 hrs after dosing.
To estimate the terminal-phase half-life (t½) of COMPOUND 1, samples were collected from subjects in the 20 mg and 40 mg dose groups for up to 64 days after dosing. […] Plasma concentrations were quantifiable for up to 53 days in subjects administered 20 mg and up to 62 days in subjects administered 40 mg.

[3] = single oral dose 40 mg, maximum individual value
[4] = single oral dose 40 mg, minimum individual value

coefficient of variability (CV) for AUC(0-24 h) [1]: 14-34%
dose relation of exposure [1]: increased in a dose-related manner
AUC(0-24 hr) Mean ([1]; 1 mg): 0.0585 µg·h/mL
Cmax Mean ([1]; 1 mg): 0.00978 µg/mL
AUC(0-24 hr) Mean ([1]; 3 mg): 0.225 µg·h/mL
Cmax ([1]; 3 mg, Cmax Mean): 0.0382 µg/mL
Tmax ([1]; 3 mg, Tmax Median): 1 h
AUC(0-24 hr) Mean ([1]; 5 mg): 0.315 µg·h/mL
Cmax Mean ([1]; 5 mg): 0.0564 µg/mL
effective half-lives determined from R values ([1]; 5 mg): 60 to 141 h
Tmax ([1]; 5 mg, Tmax Median): 1 h
half-life ([1]; 5 mg, effective half-lives determined from R values): 59.8 to 141 h
Mean accumulation index (R) values, range over dose groups ([1]; 28 days): 4.72-6.37
half-life ([1]; Mean terminal-phase half-life (t1/2), range over dose groups): 173 to 269 h
Tmax ([1]; Median Tmax values, range over dose groups): 1 to 1.5 h
Tmax ([1]; Tmax Median): 1 h
time to maximal plasma levels ([2]; across all doses in both studies (single and multiple oral dosing)): 60 to 90 min
half-life ([2]; male, human, plasma, oral, subjects of the 20 mg and 40 mg single dose groups, samples up to 64 days after dosing, read-out: apparent terminal-phase half-life (t1/2)): 126 to 269 h
Cmax ([2]; male, human, plasma, 0.25 mg, single oral dose 0.25 mg, n=6, healthy males, plasma, mean (CV %), read-out: Cmax): 0.00223 µg/mL
AUC(0-t) ([2]; male, human, plasma, 0.25 mg, single oral dose 0.25 mg, n=6, mean (CV %), read-out: AUC(0-72 hr)): 0.0337 µg·h/mL
Tmax ([2]; male, human, plasma, 0.25 mg, single oral dose 0.25 mg, n=6, value (range), read-out: Tmax): 1 h
AUC(0-t) ([2]; male, human, plasma, 1 mg, single oral dose 1 mg, n=6, mean (CV %), read-out: AUC(0-72 hr)): 0.142 µg·h/mL
Cmax ([2]; male, human, plasma, 1 mg, single oral dose 1 mg, n=6, mean (CV %), read-out: Cmax): 0.00929 µg/mL
Tmax ([2]; male, human, plasma, 1 mg, single oral dose 1 mg, n=6, value (range), read-out: Tmax): 1.25 h
AUC(0-t) ([2]; male, human, plasma, 5 mg, single oral dose 5 mg, n=6, mean (CV %), read-out: AUC(0-72 hr)): 0.74 µg·h/mL
Cmax ([2]; male, human, plasma, 5 mg, single oral dose 5 mg, n=6, mean (CV %), read-out: Cmax): 0.0514 µg/mL
Tmax ([2]; male, human, plasma, 5 mg, single oral dose 5 mg, n=6, value (range), read-out: Tmax): 0.75 h
AUC(0-t) ([2]; male, human, plasma, 10 mg, single oral dose 10 mg, n=6, mean (CV %), read-out: AUC(0-72 hr)): 1.51 µg·h/mL
Cmax ([2]; male, human, plasma, 10 mg, single oral dose 10 mg, n=6, mean (CV %), read-out: Cmax): 0.0992 µg/mL
Tmax ([2]; male, human, plasma, 10 mg, single oral dose 10 mg, n=6, value (range), read-out: Tmax): 1.5 h
AUC(0-t) ([2]; male, human, plasma, 20 mg, single oral dose 20 mg, n=5, mean (CV %), read-out: AUC(0-72 hr)): 3.35 µg·h/mL
Cmax ([2]; male, human, plasma, 20 mg, single oral dose 20 mg, n=5, mean (CV %), read-out: Cmax): 0.183 µg/mL
Tmax ([2]; male, human, plasma, 20 mg, single oral dose 20 mg, n=5, value (range), read-out: Tmax): 1.5 h
Tmax ([2]; male, human, plasma, 40 mg, loading dose 40 mg, single oral (Table 3), read-out: Tmax range): 0.5 to 1.5 h
AUC(0-t) ([2]; male, human, plasma, 40 mg, loading dose 40 mg, single oral, range of individual values (Table 3), read-out: AUC(0-72 hr) range): 4.75 to 7.51 µg·h/mL
Cmax ([2]; male, human, plasma, 40 mg, loading dose 40 mg, single oral, range of individual values (Table 3), read-out: Cmax range): 0.238 to 0.511 µg/mL
AUC(0-t) ([2]; male, human, plasma, 40 mg, single oral dose 40 mg, n=5, mean (CV %), read-out: AUC(0-72 hr), Mean): ~6.03 µg·h/mL
Cmax ([2]; male, human, plasma, 40 mg, single oral dose 40 mg, n=5, mean (CV %), read-out: Cmax, Mean): ~0.376 µg/mL
Tmax ([2]; male, human, plasma, 40 mg, single oral dose 40 mg, n=5, value (range), read-out: Tmax, Mean): 1.5 h
Tmax ([2]; male, human, plasma, 40 mg, single oral dose 40 mg, Tmax corresponding to maximum individual Cmax, read-out: Tmax, Max): 1.5 h
Tmax ([2]; male, human, plasma, 40 mg, single oral dose 40 mg, Tmax corresponding to minimum individual Cmax, read-out: Tmax): 0.5 h
Tmax ([2]; male, human, plasma, single oral doses 0.25 to 40 mg, all dose groups, read-out: Tmax range after dosing): 0.5 to 2 h
dose relation of exposure ([2]; single doses up to 40 mg, FIG. 2): dose related
time for which plasma concentrations were quantifiable ([2]; single oral dose 20 mg): up to 53 days
time for which plasma concentrations were quantifiable ([2]; single oral dose 40 mg): up to 62 days
AUC(0-72 hr), Max [2, 3]: 7.508 µg·h/mL
Cmax, Max [2, 3]: 0.511 µg/mL
AUC(0-72 hr), Min [2, 4]: 4.745 µg·h/mL
Cmax, Min [2, 4]: 0.238 µg/mL
SMILES: CCOC(=O)N[C@@H]1CC[C@@H]2[C@@H](C1)C[C@H]1C(=O)O[C@H](C)[C@H]1[C@H]2/C=C/c1ccc(-c2cccc(F)c2)cn1 [COMPOUND 1]
